{"source": "patent US11833256B2", "about": "“Selective RARγ ligand-loaded nanoparticles for manipulation of targeted bone growth” (University Of Maryland, Baltimore, priority 2017, dated 2023)", "key": {"RARγ": {"target": "T1, RARγ (Homo sapiens, UniProt P13631)", "T1 sequence (P13631 1-454)": "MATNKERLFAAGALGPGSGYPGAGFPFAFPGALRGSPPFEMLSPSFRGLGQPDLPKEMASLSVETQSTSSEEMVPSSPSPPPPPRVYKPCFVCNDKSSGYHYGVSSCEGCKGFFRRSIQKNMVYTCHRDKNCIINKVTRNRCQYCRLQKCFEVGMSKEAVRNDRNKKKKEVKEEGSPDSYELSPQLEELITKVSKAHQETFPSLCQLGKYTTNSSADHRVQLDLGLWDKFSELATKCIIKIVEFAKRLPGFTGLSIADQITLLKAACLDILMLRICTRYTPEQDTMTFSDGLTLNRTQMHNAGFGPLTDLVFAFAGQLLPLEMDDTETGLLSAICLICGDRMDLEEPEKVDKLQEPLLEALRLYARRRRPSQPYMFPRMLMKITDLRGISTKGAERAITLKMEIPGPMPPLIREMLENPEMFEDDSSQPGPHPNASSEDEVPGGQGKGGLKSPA", "assay": "Potency (ED50/EC50) of RARγ agonists"}, "[1]": {"test_system": "heterotopic ossification (HO)", "assay": "Heterotopic ossification in FOP model mice, oral palovarotene", "assay_type": "in vivo, mouse", "details": "oral administration", "excerpt": "As discussed above, control and adjustment of specific long bone growth dysregulation requires achieving a highly localized and sustained therapeutic effect. Today, surgical resection combined with systemically administered anti-inflammatory drugs is the primary treatment modality for acquired HO. Treatment options for FOP are further limited. Because the surgical procedure itself can induce additional HO formation, systemic drug therapy aimed at reducing HO progression and related symptoms is the sole choice. […] However, despite the significant reduction in HO with this treatment regimen, systemic administration of the RARγ agonist fails to completely prevent the disease. Enhancing efficacy by increasing the systemic drug dosage may not be possible without causing strong and even toxic off-target effects. Thus, the inventive methods of treatment here increase the activity at the target site without inducing unwanted systemic effects using biodegradable nanoparticle (NP) formulations impregnated with a potent RARγ agonist capable of targeting specific areas of bone.\nAcvr1cR206H/+; R26-rtTA; tetO-cre mice, treated with doxycycline to induce global expression of Acvr1cR206H/+, were subjected to hindlimb muscle injury with cardiotoxin and examined by μCT imaging 14 days after treatment with palovarotene (right) or vehicle (left). […]"}, "[2]": {"assay": "Hydrophobicity of acetaminophen-capped prodrug derivative versus parent", "assay_type": "physicochemical", "details": "acetaminophen-capped derivative vs parent retinoid", "excerpt": "In order to produce an in situ activatable, reversibly hydrophobized prodrug derivatives of a RARγ agonist, a pro-drug can be delivered in a nanoparticle formulation. […] However, the ionizable carboxylic group promotes the partitioning of the compound from the particle to the surrounding aqueous medium. […] The compound would be activatable upon release can increase the stability of the particle-cargo association and help achieve a more lasting and highly localized therapeutic effect. Such constructs are in essence mutual prodrugs or co-drugs, as they regenerate in one step the retinoid compound and acetaminophen, a biologically active “helper” agent, which can play an important supporting role in therapy."}, "[3]": {"test_system": "heterotopic ossification (HO) in FOP patients", "details": "systemic palovarotene; top-line results of ongoing Phase II trial; cited from earlier work"}, "[4]": {"assay": "Nanoparticle characterisation (size, drug loading)", "details": "in PLA-based NP", "method": "The drug loading of NP was determined spectrophotometrically against suitable calibration curves following two-step drug extraction in sec-butanol. Particle size measurements were performed by dynamic light scattering using a 90 Plus Particle Size Analyzer. An external sink method was applied for measuring drug release kinetics under sink conditions as follows: NP were diluted in PBS/2% bovine serum albumin and incubated with a water-immiscible acceptor medium (1-octanol and n-heptane, 1:1 v/v), and the released drug assayed spectrophotometrically in the acceptor medium samples at predetermined time-points."}, "Chick limb bud cells": {"test_system": "Chick limb bud cells", "assay": "Limb bud cell high density culture, cartilage matrix by Alcian blue", "assay_type": "cell-based", "details": "RA 1 μM or AGN194310 100 nM for 6 days", "protocol": "The limb bud cells were inoculated at a high density and treated with retinoids. Cartilage matrix accumulation was visualized by Alcian blue staining. […] Similar testing was described in Hoffman et al., J. Cell. Biol. 174:101-113, 2006. Chick limb bud cells were isolated from […], seeded at the density of 4×10^5 cells in 10 μL and maintained in 1% FBS containing high glucose DMEM for 3 days. Cultures then were treated with 0.1% EtOH (vehicle), retinoic acid (RA) 1 μM or AGN194310 100 nM for 6 days, fixed, and stained with Alcian Blue, pH 1.0."}}, "data": [{"compound": "CC1(C)CCC(C)(C)c2cc(Cn3cccn3)c(/C=C/c3ccc(C(=O)O)cc3)cc21", "note": "[palovarotene]", "values": [{"measurement": "potency (EC50) compared with NRX204647", "setting": "RARγ", "value": "inferior to that of NRX204647"}, {"measurement": "HO in FOP model mice", "setting": "[1]", "value": "effectively reduces HO"}, {"measurement": "more hydrophobic derivative if modified with acetaminophen", "setting": "[2]", "value": 15, "unit": "fold"}, {"measurement": "reduction of HO in patients", "setting": "[3]", "value": "up to 70%"}]}, {"compound": "CC(=O)Nc1ccc(OC(=O)c2ccc3cc(C4(c5ccc6c(c5)C(C)(C)CCC6(C)C)SCCS4)ccc3c2)cc1", "note": "[MM 11253 prodrug]", "values": [{"measurement": "average particle size", "setting": "[4]", "value": 565, "unit": "nm"}, {"measurement": "drug loading", "setting": "[4]", "value": 1, "unit": "mg/mL"}, {"measurement": "entrapment yield", "setting": "[4]", "value": 67, "unit": "%"}, {"measurement": "polydispersity index", "setting": "[4]", "value": "< 0.1"}]}, {"compound": "CCc1ccc(C2=CC(C)(C)Sc3ccc(C#Cc4ccc(C(=O)O)cc4)cc32)cc1", "note": "[AGN194310]", "values": [{"measurement": "cartilage matrix production / cartilage forming region (Alcian blue)", "setting": "Chick limb bud cells", "value": "enhanced"}]}]}
